Experimental data taken from patent US7442541B2, “β-glucan-containing fat and oil composition and novel microorganism capable of producing β-glucan” (Adeka Corporation, priority 2002, dated 2008).

Experiments:
ADK-34 = experiment: Cycloheximide resistance test; type: cell-based, Aureobasidium pullulans; settings: strain ADK-34, YM agar, 26° C., 10 days
Experimental: (§1) The strains obtained by the screening in Test Examples 1 and 2 and IFO-4466, IFO-6353, and IFO-7757 purchased from Institute for Fermentation, Osaka, i.e., were tested for cycloheximide resistance as follows. Each strain was grown on YM agar medium (Difco) at 26° C. for 5 days. YM agar media (Difco) containing 5, 10, 20, 40, and 80 μg/ml of cycloheximide were prepared. The grown strain was inoculated into each of the cycloheximide-containing media using a sterile toothpick and incubated at 26° C. for 10 days. The plates were examined for colonies. The diameters of the colonies, if formed, were measured.

IFO-7757 = experiment: Cycloheximide resistance test; type: cell-based, Aureobasidium pullulans; settings: strain IFO-7757, YM agar, 26° C., 10 days
Experimental: as §1

ADK-82 = experiment: Cycloheximide resistance test; type: cell-based, Aureobasidium pullulans; settings: strain ADK-82, YM agar, 26° C., 10 days
Experimental: as §1

IFO-4466 = experiment: Cycloheximide resistance test; type: cell-based, Aureobasidium pullulans; settings: strain IFO-4466, YM agar, 26° C., 10 days
Experimental: as §1

ADK-71 = experiment: Cycloheximide resistance test; type: cell-based, Aureobasidium pullulans; settings: strain ADK-71, YM agar, 26° C., 10 days
Experimental: as §1

IFO-6353 = experiment: Cycloheximide resistance test; type: cell-based, Aureobasidium pullulans; settings: strain IFO-6353, YM agar, 26° C., 10 days
Experimental: as §1

ADK-77 = experiment: Cycloheximide resistance test; type: cell-based, Aureobasidium pullulans; settings: strain ADK-77, YM agar, 26° C., 10 days
Experimental: as §1

[1] = test system: IFO-4466, IFO-6353, and IFO-7757; experiment: Growth of reference strains on solid medium containing cycloheximide; type: cell-based, Aureobasidium pullulans; settings: solid medium (agar plate), 26° C., 10 days
Experimental: This is the case that the formation of a colony of 0.1 mm or greater, preferably 0.3 mm or greater, still preferably 0.5 mm or greater in diameter as a result of fungous proliferation is observed on a solid medium having the cycloheximide concentration that IFO strains is not allowed to grow after a strain is inoculated on the solid medium (agar plate) containing cycloheximide and cultured at 26° C. for 10 days. Usually, these IFO strains are not allowed to grow on a solid medium containing cycloheximide at concentrations of 20 μg/ml or higher.

ADK-6 = experiment: Cycloheximide resistance test; type: cell-based; settings: strain ADK-6, YM agar, 26° C., 10 days
Experimental: as §1

ADK-5 = experiment: Cycloheximide resistance test; type: cell-based; settings: strain ADK-5, YM agar, 26° C., 10 days
Experimental: as §1

ADK-20 = experiment: Cycloheximide resistance test; type: cell-based; settings: strain ADK-20, YM agar, 26° C., 10 days
Experimental: as §1

ADK-28 = experiment: Cycloheximide resistance test; type: cell-based; settings: strain ADK-28, YM agar, 26° C., 10 days
Experimental: as §1

ADK-42 = experiment: Cycloheximide resistance test; type: cell-based; settings: strain ADK-42, YM agar, 26° C., 10 days
Experimental: as §1

ADK-31 = experiment: Cycloheximide resistance test; type: cell-based; settings: strain ADK-31, YM agar, 26° C., 10 days
Experimental: as §1

ADK-8 = experiment: Cycloheximide resistance test; type: cell-based; settings: strain ADK-8, YM agar, 26° C., 10 days
Experimental: as §1

ADK-27 = experiment: Cycloheximide resistance test; type: cell-based; settings: strain ADK-27, YM agar, 26° C., 10 days
Experimental: as §1

ADK-1 = experiment: Cycloheximide resistance test; type: cell-based; settings: strain ADK-1, YM agar, 26° C., 10 days
Experimental: as §1

C[C@@H]1C[C@@H]([C@H](O)CC2CC(=O)NC(=O)C2)C(=O)[C@@H](C)C1 [Cycloheximide, cycloheximide]
Colony diameter (ADK-34; cycloheximide 5 μg/ml): 13.6 mm
Colony diameter (ADK-34; cycloheximide 10 μg/ml): 6.7 mm
Colony diameter (ADK-34; cycloheximide 20 μg/ml): 5.1 mm
Colony diameter (ADK-34; cycloheximide 40 μg/ml): 3.7 mm
Colony diameter (ADK-34; cycloheximide 80 μg/ml): 0.5 mm
Colony diameter (IFO-7757; cycloheximide 5 μg/ml): 0 mm
Colony diameter (IFO-7757; cycloheximide 10 μg/ml): 0 mm
Colony diameter (IFO-7757; cycloheximide 20 μg/ml): 0 mm
Colony diameter (IFO-7757; cycloheximide 40 μg/ml): 0 mm
Colony diameter (IFO-7757; cycloheximide 80 μg/ml): 0 mm
Colony diameter (ADK-82; cycloheximide 5 μg/ml): 10.4 mm
Colony diameter (ADK-82; cycloheximide 10 μg/ml): 2.9 mm
Colony diameter (ADK-82; cycloheximide 20 μg/ml): 1.5 mm
Colony diameter (ADK-82; cycloheximide 40 μg/ml): 1.2 mm
Colony diameter (ADK-82; cycloheximide 80 μg/ml): 0 mm
Colony diameter (IFO-4466; cycloheximide 5 μg/ml): 4.4 mm
Colony diameter (IFO-4466; cycloheximide 10 μg/ml): 0 mm
Colony diameter (IFO-4466; cycloheximide 20 μg/ml): 0 mm
Colony diameter (IFO-4466; cycloheximide 40 μg/ml): 0 mm
Colony diameter (IFO-4466; cycloheximide 80 μg/ml): 0 mm
Colony diameter (ADK-71; cycloheximide 5 μg/ml): 7.6 mm
Colony diameter (ADK-71; cycloheximide 10 μg/ml): 4.1 mm
Colony diameter (ADK-71; cycloheximide 20 μg/ml): 1.8 mm
Colony diameter (ADK-71; cycloheximide 40 μg/ml): 1.2 mm
Colony diameter (ADK-71; cycloheximide 80 μg/ml): 0 mm
Colony diameter (IFO-6353; cycloheximide 5 μg/ml): 7.3 mm
Colony diameter (IFO-6353; cycloheximide 10 μg/ml): 2.3 mm
Colony diameter (IFO-6353; cycloheximide 20 μg/ml): 0 mm
Colony diameter (IFO-6353; cycloheximide 40 μg/ml): 0 mm
Colony diameter (IFO-6353; cycloheximide 80 μg/ml): 0 mm
Colony diameter (ADK-77; cycloheximide 5 μg/ml): 9.5 mm
Colony diameter (ADK-77; cycloheximide 10 μg/ml): 4.1 mm
Colony diameter (ADK-77; cycloheximide 20 μg/ml): 0.8 mm
Colony diameter (ADK-77; cycloheximide 40 μg/ml): 0 mm
Colony diameter (ADK-77; cycloheximide 80 μg/ml): 0 mm
cycloheximide concentration at which IFO strains are not allowed to grow [1]: ≥ 20 µg/mL
Colony diameter (ADK-6; cycloheximide 5 μg/ml): 7.1 mm
Colony diameter (ADK-6; cycloheximide 10 μg/ml): 0 mm
Colony diameter (ADK-6; cycloheximide 20 μg/ml): 0 mm
Colony diameter (ADK-6; cycloheximide 40 μg/ml): 0 mm
Colony diameter (ADK-6; cycloheximide 80 μg/ml): 0 mm
Colony diameter (ADK-5; cycloheximide 5 μg/ml): 6.3 mm
Colony diameter (ADK-5; cycloheximide 10 μg/ml): 0 mm
Colony diameter (ADK-5; cycloheximide 20 μg/ml): 0 mm
Colony diameter (ADK-5; cycloheximide 40 μg/ml): 0 mm
Colony diameter (ADK-5; cycloheximide 80 μg/ml): 0 mm
Colony diameter (ADK-20; cycloheximide 5 μg/ml): 6.2 mm
Colony diameter (ADK-20; cycloheximide 10 μg/ml): 0 mm
Colony diameter (ADK-20; cycloheximide 20 μg/ml): 0 mm
Colony diameter (ADK-20; cycloheximide 40 μg/ml): 0 mm
Colony diameter (ADK-20; cycloheximide 80 μg/ml): 0 mm
Colony diameter (ADK-28; cycloheximide 5 μg/ml): 7.1 mm
Colony diameter (ADK-28; cycloheximide 10 μg/ml): 0 mm
Colony diameter (ADK-28; cycloheximide 20 μg/ml): 0 mm
Colony diameter (ADK-28; cycloheximide 40 μg/ml): 0 mm
Colony diameter (ADK-28; cycloheximide 80 μg/ml): 0 mm
Colony diameter (ADK-42; cycloheximide 5 μg/ml): 2.4 mm
Colony diameter (ADK-42; cycloheximide 10 μg/ml): 0 mm
Colony diameter (ADK-42; cycloheximide 20 μg/ml): 0 mm
Colony diameter (ADK-42; cycloheximide 40 μg/ml): 0 mm
Colony diameter (ADK-42; cycloheximide 80 μg/ml): 0 mm
Colony diameter (ADK-31; cycloheximide 5 μg/ml): 6.3 mm
Colony diameter (ADK-31; cycloheximide 10 μg/ml): 1.7 mm
Colony diameter (ADK-31; cycloheximide 20 μg/ml): 0 mm
Colony diameter (ADK-31; cycloheximide 40 μg/ml): 0 mm
Colony diameter (ADK-31; cycloheximide 80 μg/ml): 0 mm
Colony diameter (ADK-8; cycloheximide 5 μg/ml): 7.7 mm
Colony diameter (ADK-8; cycloheximide 10 μg/ml): 1.1 mm
Colony diameter (ADK-8; cycloheximide 20 μg/ml): 0 mm
Colony diameter (ADK-8; cycloheximide 40 μg/ml): 0 mm
Colony diameter (ADK-8; cycloheximide 80 μg/ml): 0 mm
Colony diameter (ADK-27; cycloheximide 5 μg/ml): 10.3 mm
Colony diameter (ADK-27; cycloheximide 10 μg/ml): 0 mm
Colony diameter (ADK-27; cycloheximide 20 μg/ml): 0 mm
Colony diameter (ADK-27; cycloheximide 40 μg/ml): 0 mm
Colony diameter (ADK-27; cycloheximide 80 μg/ml): 0 mm
Colony diameter (ADK-1; cycloheximide 5 μg/ml): 0 mm
Colony diameter (ADK-1; cycloheximide 10 μg/ml): 0 mm
Colony diameter (ADK-1; cycloheximide 20 μg/ml): 0 mm
Colony diameter (ADK-1; cycloheximide 40 μg/ml): 0 mm
Colony diameter (ADK-1; cycloheximide 80 μg/ml): 0 mm
